Laboratory results published in PubChem BioAssay (NCI).
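Each compound was tested at five concentrations against cells in 96-well plates for 48 hours. GI50 = concentration required for 50% inhibition of growth. TGI: total growth inhibition.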

Experiments:
Assay in all cases: DTP human tumour cell line panel, 48 h
MCF7 breast = tested on: MCF7 breast
HOP-62 NSCLC = tested on: HOP-62 NSCLC
COLO 205 colon = tested on: COLO 205 colon
NCI-H460 lung = tested on: NCI-H460 lung
U251 CNS = tested on: U251 CNS
PC-3 prostate = tested on: PC-3 prostate
A549 NSCLC = tested on: A549 NSCLC
LOX IMVI melanoma = tested on: LOX IMVI melanoma
SF-539 CNS = tested on: SF-539 CNS
KM12 colon = tested on: KM12 colon
HOP-92 NSCLC = tested on: HOP-92 NSCLC
UACC-257 melanoma = tested on: UACC-257 melanoma
MDA-MB-435 = tested on: MDA-MB-435
HL-60(TB) leukemia = tested on: HL-60(TB) leukemia
HS 578T breast = tested on: HS 578T breast
MALME-3M melanoma = tested on: MALME-3M melanoma
SW-620 colon = tested on: SW-620 colon
NCI/ADR-RES ovarian = tested on: NCI/ADR-RES ovarian
A498 renal = tested on: A498 renal
OVCAR-5 ovarian = tested on: OVCAR-5 ovarian
MOLT-4 leukemia = tested on: MOLT-4 leukemia
SF-268 CNS = tested on: SF-268 CNS
SNB-19 CNS = tested on: SNB-19 CNS
DU-145 prostate = tested on: DU-145 prostate
OVCAR-8 ovarian = tested on: OVCAR-8 ovarian
IGROV1 ovarian = tested on: IGROV1 ovarian
TK-10 renal = tested on: TK-10 renal
786-0 renal = tested on: 786-0 renal
UACC-62 melanoma = tested on: UACC-62 melanoma
SN12C renal = tested on: SN12C renal
K-562 leukemia = tested on: K-562 leukemia
CAKI-1 renal = tested on: CAKI-1 renal
SR leukemia = tested on: SR leukemia
HT29 colon = tested on: HT29 colon
NCI-H23 lung = tested on: NCI-H23 lung
SK-OV-3 ovarian = tested on: SK-OV-3 ovarian
SF-295 CNS = tested on: SF-295 CNS
MDA-MB-468 breast = tested on: MDA-MB-468 breast
HCT-15 colon = tested on: HCT-15 colon
NCI-H226 lung = tested on: NCI-H226 lung
HCC-2998 colon = tested on: HCC-2998 colon
CCRF-CEM leukemia = tested on: CCRF-CEM leukemia
T-47D breast = tested on: T-47D breast
ACHN renal = tested on: ACHN renal
NCI-H522 lung = tested on: NCI-H522 lung
OVCAR-3 ovarian = tested on: OVCAR-3 ovarian
RPMI-8226 leukemia = tested on: RPMI-8226 leukemia
OVCAR-4 ovarian = tested on: OVCAR-4 ovarian
SK-MEL-28 melanoma = tested on: SK-MEL-28 melanoma
RXF 393 renal = tested on: RXF 393 renal
BT-549 breast = tested on: BT-549 breast
SK-MEL-5 melanoma = tested on: SK-MEL-5 melanoma

O=C(Nc1cc(Cl)cc(Cl)c1)Nc1cc(Cl)cc(Cl)c1
GI50 (MCF7 breast): 2280 nM
TGI (MCF7 breast): 7.37 µM
GI50 (HOP-62 NSCLC): 2610 nM
TGI (HOP-62 NSCLC): 8.74 µM
GI50 (COLO 205 colon): 1990 nM
TGI (COLO 205 colon): 3.5 µM
GI50 (NCI-H460 lung): 2110 nM
TGI (NCI-H460 lung): > 100 µM
GI50 (U251 CNS): 2750 nM
TGI (U251 CNS): 11.5 µM
GI50 (PC-3 prostate): 2420 nM
TGI (PC-3 prostate): > 100 µM
GI50 (A549 NSCLC): 2020 nM
TGI (A549 NSCLC): > 100 µM
GI50 (LOX IMVI melanoma): 2100 nM
TGI (LOX IMVI melanoma): 4.54 µM
GI50 (SF-539 CNS): 2260 nM
TGI (SF-539 CNS): 6.07 µM
GI50 (KM12 colon): 2970 nM
TGI (KM12 colon): 9.44 µM
GI50 (HOP-92 NSCLC): 1990 nM
TGI (HOP-92 NSCLC): 6.02 µM
GI50 (UACC-257 melanoma): 2350 nM
TGI (UACC-257 melanoma): 6.42 µM
GI50 (MDA-MB-435): 3.11 µM
TGI (MDA-MB-435): > 100 µM
GI50 (HL-60(TB) leukemia): 1570 nM
TGI (HL-60(TB) leukemia): 4.07 µM
GI50 (HS 578T breast): 2690 nM
TGI (HS 578T breast): 8.47 µM
GI50 (MALME-3M melanoma): 1920 nM
TGI (MALME-3M melanoma): 5.13 µM
GI50 (SW-620 colon): 3.4 µM
TGI (SW-620 colon): > 100 µM
GI50 (NCI/ADR-RES ovarian): 2170 nM
TGI (NCI/ADR-RES ovarian): 8.41 µM
GI50 (A498 renal): 2240 nM
TGI (A498 renal): 6.51 µM
GI50 (OVCAR-5 ovarian): 2910 nM
TGI (OVCAR-5 ovarian): > 100 µM
GI50 (MOLT-4 leukemia): 1820 nM
TGI (MOLT-4 leukemia): 4.42 µM
GI50 (SF-268 CNS): 3.31 µM
TGI (SF-268 CNS): > 100 µM
GI50 (SNB-19 CNS): 3.05 µM
TGI (SNB-19 CNS): > 100 µM
GI50 (DU-145 prostate): 3.89 µM
TGI (DU-145 prostate): > 100 µM
GI50 (OVCAR-8 ovarian): 2900 nM
TGI (OVCAR-8 ovarian): > 100 µM
GI50 (IGROV1 ovarian): 3.52 µM
TGI (IGROV1 ovarian): > 100 µM
GI50 (TK-10 renal): 3.27 µM
TGI (TK-10 renal): > 100 µM
GI50 (786-0 renal): 3 µM
TGI (786-0 renal): > 100 µM
GI50 (UACC-62 melanoma): 2480 nM
TGI (UACC-62 melanoma): 14.3 µM
GI50 (SN12C renal): 2660 nM
TGI (SN12C renal): 9.92 µM
GI50 (K-562 leukemia): 2500 nM
TGI (K-562 leukemia): 12.8 µM
GI50 (CAKI-1 renal): 2790 nM
TGI (CAKI-1 renal): > 100 µM
GI50 (SR leukemia): 1720 nM
TGI (SR leukemia): 4.1 µM
GI50 (HT29 colon): 2880 nM
TGI (HT29 colon): 14.9 µM
GI50 (NCI-H23 lung): 1860 nM
TGI (NCI-H23 lung): 5.55 µM
GI50 (SK-OV-3 ovarian): 2400 nM
TGI (SK-OV-3 ovarian): 6.31 µM
GI50 (SF-295 CNS): 1740 nM
TGI (SF-295 CNS): 4.4 µM
GI50 (MDA-MB-468 breast): 2270 nM
TGI (MDA-MB-468 breast): 6.48 µM
GI50 (HCT-15 colon): 2180 nM
TGI (HCT-15 colon): > 100 µM
GI50 (NCI-H226 lung): 2950 nM
TGI (NCI-H226 lung): > 100 µM
GI50 (HCC-2998 colon): 3.13 µM
TGI (HCC-2998 colon): > 100 µM
GI50 (CCRF-CEM leukemia): 2550 nM
TGI (CCRF-CEM leukemia): 8.04 µM
GI50 (T-47D breast): 3.04 µM
TGI (T-47D breast): > 100 µM
GI50 (ACHN renal): 2750 nM
TGI (ACHN renal): > 100 µM
GI50 (NCI-H522 lung): 1230 nM
TGI (NCI-H522 lung): 5.22 µM
GI50 (OVCAR-3 ovarian): 2920 nM
TGI (OVCAR-3 ovarian): > 100 µM
GI50 (RPMI-8226 leukemia): 861 nM
TGI (RPMI-8226 leukemia): 3.97 µM
GI50 (OVCAR-4 ovarian): 3.54 µM
TGI (OVCAR-4 ovarian): > 100 µM
GI50 (SK-MEL-28 melanoma): 2750 nM
TGI (SK-MEL-28 melanoma): > 100 µM
GI50 (RXF 393 renal): 2560 nM
TGI (RXF 393 renal): 8.66 µM
GI50 (BT-549 breast): 2450 nM
TGI (BT-549 breast): 7.85 µM
GI50 (SK-MEL-5 melanoma): 1740 nM
TGI (SK-MEL-5 melanoma): 3.28 µM
